Biological target: T1, PLK1 (Homo sapiens, UniProt P53350)
T1 construct: full-length PLK1, N-terminal NLuc fusion (NLuc-PLK1)
Experiment: live-cell NanoBRET probe titration with and without excess compound […]
Type: cell-based

T1 sequence (P53350 whole entry, the tested form may be a part): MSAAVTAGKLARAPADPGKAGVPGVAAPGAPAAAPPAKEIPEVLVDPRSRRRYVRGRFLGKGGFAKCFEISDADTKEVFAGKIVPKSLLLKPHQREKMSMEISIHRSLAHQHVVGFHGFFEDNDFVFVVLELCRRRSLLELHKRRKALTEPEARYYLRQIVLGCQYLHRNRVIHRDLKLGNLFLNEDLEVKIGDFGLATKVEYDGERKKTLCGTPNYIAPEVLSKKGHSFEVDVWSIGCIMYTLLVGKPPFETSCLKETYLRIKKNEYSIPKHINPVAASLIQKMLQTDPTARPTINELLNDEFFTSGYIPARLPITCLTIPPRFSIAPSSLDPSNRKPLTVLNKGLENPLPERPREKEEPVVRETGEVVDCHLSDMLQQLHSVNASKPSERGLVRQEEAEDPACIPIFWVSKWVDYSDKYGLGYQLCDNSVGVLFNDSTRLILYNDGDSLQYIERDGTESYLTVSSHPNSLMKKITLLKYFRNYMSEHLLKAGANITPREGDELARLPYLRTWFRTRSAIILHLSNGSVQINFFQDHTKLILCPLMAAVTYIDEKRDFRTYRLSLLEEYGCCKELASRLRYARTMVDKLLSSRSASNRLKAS

`CC[C@@H]1C(=O)N(C)c2cnc(Nc3ccc(C(=O)NC4CCN(C(=O)CCOCCOCCOCCOCCNC(=O)CCc5ccc6n5[B-](F)(F)[N+]5=C(c7ccc[nH]7)C=CC5=C6)CC4)cc3OC)nc2N1C(C)C` [compound 11, (R)-N-(1-(1-(5,5-difluoro-7-(1H-pyrrol-2-yl)-5H-5^λ,6^λ-dipyrrolo[1,2-c:2',1'-f][1,3,2]diazaborinin-3-yl)-3-oxo-7,10,13,16-tetraoxa-4-azanonadecan-19-oyl)piperidin-4-yl)-4-((7-ethyl-8-isopropyl-5-methyl-6-oxo-5,6,7,8-tetrahydropteridin-2-yl)amino)-3-methoxybenzamide] was tested, and the EC50 was 300 nM.

Source: publication doi:10.1101/2023.02.25.529946, “Development of Cell Permeable NanoBRET Probes for the Measurement of PLK1 Target Engagement in Live Cells” (bioRxiv, 2023)
